Data taken from US11135445B2, “Antimicrobial photodynamic inactivation procedure and system” (The General Hospital Corporation, priority 2014, dated 2021).

Tests used:
E. coli [1] = test: RB-mediated aPDI in vitro with/without KI; format: cell-based, Escherichia coli K-12 (ATCC 33780); settings: for killing: 10 μM RB
Procedure: (§1) A source of green light was configured from a white lamp and a band-pass filter probe (wavelength, 540±15 nm Lumacare, Newport Beach, Calif., USA) to deliver light over a spot of 4 cm in diameter to simultaneously irradiate four wells of a 24-well plate in vitro or the whole abrasion in vive at an irradiance of 100 mW/cm^2. Light power was measured with a power meter (model DMM 199 with a 201 standard head; Coherent, Santa Clara, Calif., USA).
(§2) The following microbial strains were used: the Gram-positive bacterium methicillin-resistant Staphylococcus aureus (MRSA) USA 300, Gram-negative bacteria Escherichia coli K-12 (ATCC 33780) and Pseurdomonas aeruginosa ATCC 19660 (Xen 5P), and strain CEC 749 of the luciferase-expressing fungal yeast Candida albicans. A colony of bacteria or fungal yeast was suspended in 20 ml of brain heart infusion (BHI) broth for bacteria or yeast extract-peptone-dextrose (YPD) for C. albicans and grown overnight in a shaker incubator (New Brunswick Scientific, Edison, N.J.) at 120 rpm under aerobic conditions at 37° C. for bacteria and at 30° C. for C. albicans. For bacteria, an aliquot of 1 ml from an overnight bacterial suspension was refreshed in fresh BHI for 2 to 3 h at 37° C. to mid-log phase. The cell concentration was estimated by measuring the optical density (OD) at 600 nm (OD of 0.6=10^8 cells/ml). The C. albicans cell number was assessed with a hemocytometer and was generally between 10^7 and 10^8 cells/ml.
(§3) Two types of in vitro aPDI experiments were carried out. The first experiments used cells with fixed RB and KI concentrations while varying the dose of irradiating light. The second type of experiments used cells with a fixed RB concentration and a fixed light dose while varying the KI concentration. Here, comparison was performed based on the order of addition of the components and the effect of centrifugation. […]

C. albicans = test: RB-mediated aPDI in vitro with/without KI; format: cell-based, Candida albicans CEC 749
Procedure: as §1
as §2, with “The cell concentration was estimated by measuring the optical density (OD) at 600 nm (OD of 0.6=10^8 cells/ml).” left out, “cells/ml. […]” for “cells/ml.”

P. aeruginosa [2] = test: RB-mediated aPDI in vitro with/without KI; format: cell-based, Pseudomonas aeruginosa ATCC 19660 (Xen 5P); settings: no KI
Procedure: as §1
as §2, with “The cell concentration was estimated by measuring the optical density (OD) at 600 nm (OD of 0.6=10^8 cells/ml).” left out, “cells/ml. […]” for “cells/ml.”

P. aeruginosa [3] = test: In vivo PDT of skin abrasions infected with bioluminescent P. aeruginosa; design: species or system BALB/c mice; settings: RB 500 μM, up to 20 J/cm^2
Procedure: The Pseudomonas aerugenosa strain used in this work was ATCC 19660 (Xen 5P). Bacteria were routinely grown in BHI with aeration in an orbital incubator at 100 rpm and 37° C. overnight to stationary phase. An aliquot of this suspension was then refreshed in fresh BHI to mid-log phase. Cell numbers were estimated by measuring the OD at 600 nm (OD of 0.6=10^8 CFU cells/ml). The bacterial suspension was centrifuged, washed, and resuspended in PBS, and the suspension was diluted 10-fold for the in vivo experiments.
An IVIS Lumina series III in vivo imaging system (PerkinElmer, Inc., Waltham, Mass., USA) was applied for bioluminescence imaging on a daily basis until the disappearance of the infection by bioluminescence imaging. Using the photon counting mode, an image can be obtained by detecting and integrating individual photons emitted by the bacterial cells. Prior to PDT and imaging, mice were anesthetized by intraperitoneal (i.p.) injection of a ketamine-xylazine cocktail. […] The signal from the bioluminescence image was quantified as the region of interest (ROI), with absolute calibrated data being given as the number of photons/(s cm^2 sr), using the IVIS software. […]
Mice were divided into four groups of 5 mice each. […] Then, the wounds were irradiated with green light at a fluence of up to 20 J/cm^2, and luminescence imaging was performed after irradiation.

MRSA = test: RB-mediated aPDI in vitro with/without KI; format: cell-based, methicillin-resistant Staphylococcus aureus (MRSA) USA 300
Procedure: as §1, §2, §3

[4] = system: mammalian dermal skin fibroblasts; test: Effect of KI in vitro on mammalian cells; format: cell-based; settings: 3 hours, KI 0.001-10 mM
S. aureus = test: Toxicity of KI alone on bacteria; format: cell-based, Staphylococcus aureus (NCTC 8325); settings: KI 0-50 mM, 10 minutes, dark control and 5 J/cm^2 red light
Procedure: (§4) Since there existed a possibility that KI itself could exert an antimicrobial effect, to eliminate or at least account for the direct influence of the KI on the bacteria and to ensure that the final efficiency of the PDI process is attributed to the potentiation of the MB with the KI, additional qualitative performance evaluation tests were performed. Specifically, the bacteria cells (10^8 CFU; 500 uL) were incubated with different concentrations of KI (0-50 mM) for 10 minutes in order to verify the toxicity of KI. An aliquot of 100 μl from each sample, was used as dark control, another (100 μl) was irradiated with 5 J/cm^2 dose of light (660 nm light) and then placed in a new 96 well plate. The aliquots were serially diluted as before. The results presented in FIGS. 2A, 2B (for S. aureus and E. coli) verified that KI itself was not responsible for the increased potency of the PDI treatment observed in the experiments with the MCPPS.

[5] = Time-resolved singlet oxygen detection (1,270-nm phosphorescence); format: physicochemical
Procedure: The interaction of iodide with singlet oxygen photogenerated by RB was examined directly by measuring the lifetime of singlet oxygen at different concentrations of KI and indirectly by monitoring the effect of increasing concentrations of iodide on oxygen uptake induced by irradiation of the RB solution with green light. Time-resolved singlet oxygen detection was carried out as follows. Phosphate-buffered (pH 7.2) D2O solutions of RB (optical densitv,=0.25 to 0.3 at 550 nm) in a 1-cm-optical-path quartz fluorescence cuvette (catalog number QA-1000; Hellma, Mullheim. Germany) were excited by 550-nm pulses generated by an integrated nanosecond neodymium-doped yttrium aluminum garnet laser system equipped with a narrow-band-width optical parametric oscillator (model NT242-1k-SH/SFG; Ekspla. Vilnius, Lithuania), which delivered pulses at a repetition rate of 1 kHz with energy of up to several hundred microjoules in the visible region. […] The near-infrared luminescence (1,270 nm) was measured perpendicularly to the excitation beam in a photon-counting mode using a thermoelectric cooled near-infrared photomultiplier tube (NIR PMT) module (model H10330-45; Hamamatsu, Japan) equipped with a 1,100-nm-cutoff filter and an additional dichroic narrow-band filter narrow-band pass (NBP), selectable from the spectral range of 1,150 to 1,355 nm (NDC Infrared Engineering Ltd., Maldon, Essex, UK). […]

E. coli [6] = test: Toxicity of KI alone on bacteria; format: cell-based, Escherichia coli K12 (ATCC 33780); settings: KI 0-50 mM, 10 minutes, dark control and 5 J/cm^2 red light
Procedure: as §4

| Structure (SMILES) | killing (E. coli [1]; no KI, 20 J/cm^2 540 nm) [logs] | killing (E. coli [1]; with or without 100 mM KI, 10 J/cm^2 540 nm) | killing by RB aPDI in the absence of KI (E. coli [1]; no KI) | killing (C. albicans; 10 μM RB plus light, no KI, either fluence (10, 20 J/cm^2)) | killing, cells centrifuged after incubation with RB (C. albicans; 10 μM RB, 10 J/cm^2, KI up to 100 mM) | killing by RB aPDI in the absence of KI (P. aeruginosa [2]) | reduction in the bioluminescence signal with 540-nm light (P. aeruginosa [3]) | killing (MRSA; 100 nM RB plus light, no KI) [logs] | killing after a spin (centrifugation) (MRSA; 100 nM RB, 10 J/cm^2) | RB concentration that produced eradication (MRSA; RB as antimicrobial PS plus light) [nM] | killing of mammalian cells by KI [4] | bacteria killing by KI alone (S. aureus) | shortening of observable lifetime of singlet oxygen-dependent luminescence ([5]; 35 mM KI, RB in D2O) | bimolecular rate constant of quenching (kq) of singlet oxygen ([5]; RB-photogenerated singlet oxygen, KI 0 to 50 mM) | bacteria killing by KI alone (E. coli [6]) |
| --- | --- | --- | --- | --- | --- | --- | --- | --- | --- | --- | --- | --- | --- | --- | --- |
| O=C1OC2(c3cc(I)c(O)c(I)c3Oc3c2cc(I)c(O)c3I)c2c(Cl)c(Cl)c(Cl)c(Cl)c21 [RB, Rose bengal] | 2 | less than 1 logs | almost no killing | no killing | some minor killing after centrifugation | almost no killing | only a slight reduction | 1 to 2 | centrifugation abolished the killing | 200 |  |  |  |  |  |
| [I-].[K+] [KI, potassium iodide] |  |  |  |  |  |  |  |  |  |  | did not kill mammalian cells | no bacteria killing was found | more than 3 fold | 1.1*10^6 l/(m*s) | no bacteria killing was found |
